Measured values: patent publication US20260209249A1, “NOVEL TRICYCLIC COMPOUND AS KRAS G12D INHIBITOR, AND USE THEREOF” (SK Biopharmaceuticals Co., priority 2022, published 2026)
pIC50: −log10 of the molar value.

Assays:
[1] = target: T1, GDP-KRAS G12D mutant protein (Homo sapiens, UniProt P01116, G12D); test: Differential scanning fluorimetry (DSF) binding affinity to GDP-KRAS G12D mutant protein; settings: DSF thermal shift, 10 μM compound, 4 μg KRAS protein
T1 construct: purchased Daegu Gyeongbuk Medical Innovation Foundation (DGMIF), made to order
In short: (§1)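 Thermal shift ΔTm was measured at 10 μM compound over a 25–99 °C ramp (0.05 °C/s), read at 580 nm ex/623 nm em with SYPRO Orange (2×). The protein (4 μg) was preincubated with compound for 30 min at room temperature, in 50 mM HEPES pH 7.5 for GppNHp-KRAS G12D or in kit buffer for GDP-KRAS G12D.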

[2] = system: KRAS G12D mutant pancreatic cancer cell line AsPC-1; test: Cell viability assay using KRAS G12D mutant cells (AsPC-1, 3D culture, celltiter-glo 3D); type: cell-based; settings: Homo sapiens, ASPC1, 5th day after compound treatment
Method: Test Example 3: Cell Viability Assay Using KRAS G12D Mutant Cells
The KRAS G12D mutant pancreatic cancer cell line AsPC-1 was obtained from the Korean Cell Line Bank (KCLB) and maintained in 100-mm dishes or T75 (75 cm^2) flasks using RPM11640+10% fetal bovine serum (FBS)+1% Penicillin-Streptomycin medium. The cells were cultured at 37° C. with 5% CO2. The number of viable cells was counted using Countess (Invitrogen).
When AsPC-1 cells reached 85-100% confluence in the flask, the cells were harvested using 1× trypsin/EDTA solution, and seeded into a 96-well plate for 3D culture at 1000 cells/100 μL/well. The next day, the compounds were diluted ⅕ with DMSO from 10 μM or 50 μM to 0.0001 μM or 0.0006 μM and treated 1:1 (v/v) in the plate where the cells were seeded.
Cell culture was terminated on the 5th day after compound treatment, and cell viability at each concentration was measured using the celltiter-glo 3D cell viability assay kit.
Cell viability assays were normalized to 100% for the DMSO-treated group and expressed as a percentage of the number of viable cells when treated with the compound.
Cell viability %=(average RLU of group treated with test substance−average RLU of untreated group)/(average RLU of group treated with DMSO−average RLU of untreated group)×100
The data were modeled using GraphPad Prism 9 (GraphPad Software) by applying a nonlinear regression curve fit with a four-parameter sigmoidal dose-response curve to determine cell viability as a function of compound concentration. The 50% inhibitory concentration (IC50) corresponds to the concentration at which the curve intersects the midpoint of cell viability. The results of the inhibitory effect of the compounds according to one embodiment of the present application on the viability of KRAS G12D mutant cells are presented in Table 4.

[3] = target: T2, GppNHp-KRAS G12D mutant protein (Homo sapiens, UniProt P01116, G12D); test: Differential scanning fluorimetry (DSF) binding affinity to GppNHp-KRAS G12D mutant protein; settings: DSF thermal shift, 10 μM compound, 4 μg KRAS protein, 50 mM HEPES (pH 7.5)
T2 construct: purchased Daegu Gyeongbuk Medical Innovation Foundation (DGMIF), made to order
In short: as §1

[4] = system: ERK phosphorylation (pERK) induced by KRAS G12D mutation; test: Inhibitory activity against ERK phosphorylation (pERK) induced by KRAS G12D mutation, immunofluorescence assay in AsPC-1 cells; type: cell-based; settings: Homo sapiens, ASPC1, 3 h drug treatment, pERK (Thr202/Tyr204) signal normalized to DAPI
Text: Test Example 2: Measurement of Inhibitory Activity Against ERK Phosphorylation (pERK) Induced by KRAS G12D Mutation (Immunofluorescence Assay)
Immunofluorescence is a method used to detect specific substances within cells or tissues through antigen-antibody interactions, and allows for the identification of the presence or absence of specific proteins by using antibodies labeled with various fluorescent dyes. After a primary antibody that recognizes a specific protein selectively binds to the epitope, a fluorescent antibody (secondary antibody) is bound to the primary antibody.
It was confirmed as follows that the compounds according to an embodiment of the present application inhibit phosphorylation of extracellular signal-regulated kinases (Phospho-ERK, pERK) induced by KRAS G12D mutation.
AsPC-1 cells were seeded at a density of 10,000 cells/well in RPMI-1640 medium containing 10% FBS and 1% Penicillin-Streptomycin in 384-well plates (Perkinelmer, #6057300) and allowed to attach for 16 h. After the cells attached to the plate, the cells were treated with drugs at a maximum concentration of 10 μM with a 3-fold serial dilution. After 3 h of drug treatment, the medium was removed and the cells were treated with 50 μL of 4% formaldehyde (Biosesang, #PC2031-050-00) for 20 min and washed three times with 50 μL of phosphate buffered saline (PBS).
50 μL of PBS containing 0.3% Triton X-100 (Sigma, #T8787-250 mL) was added and reacted for 20 minutes to allow antibody penetration into cells, and then the plate was washed three times with 50 μL of PBS. To block nonspecific binding of antibodies to the plate, 50 μL of PBS containing 2% BSA (sigma, #A7906-500G) and 0.01% Tween-20 (Sigma, #P1379-500 mL) (hereinafter referred to as PBS-T) was added, and reacted at room temperature for 2 hours.
To detect pERK, the primary antibody (cell signaling, #9101) was diluted 1:500 in PBS-T containing 2% BSA, 50 μL was added, and the plate was stored in a refrigerator at 4° C. for 16 hours to react, followed by washing three times with 50 μL of PBS-T. To visualize the primary antibody, the secondary antibody, i.e., anti-rabbit-Alexa Fluor 488 (ThermoFisher, #A11008), was diluted 1:1000 in PBS-T containing 2% BSA, 50 μL was added, and after reaction at room temperature for 1 hour, the plate was washed three times with 50 μL of PBS-T. Next, to visualize the nuclei of cells, DAPI (Thermofisher, #62248, 1 mg/mL) was diluted 1:1000 in PBS-T, 50 μL each was added, reacted at room temperature for 10 minutes, and washed three times with 50 μL of PBS-T. 50 μL of PBS-T was added to each well, and the plate was read for fluorescence value using HCS equipment (MOLECULAR DEVICES/ImageXpress Micro).
Data analysis was performed by normalizing the pERK (Thr202/Tyr204) signal to the DAPI signal and calculating the percentage relative to the DMSO as a control. The IC50 value was determined by fitting a four-parameter dose-response curve using the GraphPad Prism software (version 8.4.3), and interpolating the concentration at which 50% inhibition occurred. The results of calculating the inhibitory efficacy of the compounds according to one embodiment of the present application against KRAS G12D mutation-induced pERK activity are shown in Table 3.

| SMILES | GDP-KRAS G12D (ΔTmD, ° C.) [1] [°C] | pIC50 [2] | GppNHp-KRAS G12D (ΔTmD, ° C.) [3] [°C] | pIC50 [4] |
| --- | --- | --- | --- | --- |
| C#Cc1c(F)ccc2cc(N)cc(-c3c(F)c4nc(OC[C@@]56CCCN5CC(=C(F)F)C6)nc(N5C[C@H]6CC[C@@H](C5)N6)c4c4cn(C)nc34)c12 [Example 99, 4-(9-((1R,5S)-3,8-diazabicyclo[3.2.1]octan-3-yl)-7-(((S)-2-(difluoromethylene)tetrahydro-1H-pyrrolizin-7a(5H)-yl)methoxy)-5-fluoro-2-methyl-2H-pyrazolo[4,3-f]quinazolin-4-yl)-5-ethynyl-6-fluoronaphthalen-2-amine] | 11.13 | 7.57 | 7.27 | – |
| C#Cc1c(F)ccc2cc(O)cc(-c3cc4nc(OC[C@]56CCCN5CC(=C)C6)nc(N5[C@@H]6CC[C@H]5CNC6)c4n4ccnc34)c12 [Example 21, 4-(1-((1R,5S)-3,8-diazabicyclo[3.2.1]octan-8-yl)-3-(((R)-2-methylenetetrahydro-1H-pyrrolizin-7a(5H)-yl)methoxy)imidazo[1′,2′:1,6]pyrido[3,2-d]pyrimidin-6-yl)-5-ethynyl-6-fluoronaphthalen-2-ol] | 8.13 | – | 4.72 | 6.71 |
| Cc1cc2c(o1)c(-c1cc(O)cc3ccccc13)c(F)c1nc(OC[C@@]34CCCN3C[C@H](F)C4)nc(N3C[C@H]4CC[C@@H](C3)N4)c12 [Example 43, 4-(1-((1R,5S)-3,8-diazabicyclo[3.2.1]octan-3-yl)-5-fluoro-3-(((2R,7aS)-2-fluorotetrahydro-1H-pyrrolizin-7a(5H)-yl)methoxy)-8-methylfuro[3,2-f]quinazolin-6-yl)naphthalen-2-ol] | 9.30 | – | 4.27 | 6.02 |
| Cc1cc2c(o1)c(-c1ccc(F)c3sc(N)c(C#N)c13)c(F)c1nc(OC[C@@]34CCCN3C/C(=C\F)C4)nc(N3C[C@H]4CC[C@@H](C3)N4)c12 [Example 63, 4-(1-((1R,5S)-3,8-diazabicyclo[3.2.1]octan-3-yl)-5-fluoro-3-(((S,Z)-2-(fluoromethylene)tetrahydro-1H-pyrrolizin-7a(5H)-yl)methoxy)-8-methylfuro[3,2-f]quinazolin-6-yl)-2-amino-7-fluorobenzo[b]thiophene-3-carbonitrile] | 8.72 | – | 9.02 | 6.27 |
| C#Cc1c(F)ccc2cc(O)cc(-c3c(F)c4nc(OCC5(CN6CC[C@@H](F)C6)CCC5)nc(N5C[C@H]6CC[C@@H](C5)N6)c4c4cn(C)nc34)c12 [Example 98, 4-(9-((1R,5S)-3,8-diazabicyclo[3.2.1]octan-3-yl)-5-fluoro-7-((1-(((R)-3-fluoropyrrolidin-1-yl)methyl)cyclobutyl)methoxy)-2-methyl-2H-pyrazolo[4,3-f]quinazolin-4-yl)-5-ethynyl-6-fluoronaphthalen-2-ol] | 11.43 | 6.96 | 5.79 | – |
| CCc1c(F)ccc2cc(O)cc(-c3c(F)c4nc(OC[C@@]56CCCN5CC(=C(F)F)C6)nc(N5C[C@H]6CC[C@@H](C5)N6)c4c4cn(C)nc34)c12 [Example 97, 4-(9-((1R,5S)-3,8-diazabicyclo[3.2.1]octan-3-yl)-7-(((S)-2-(difluoromethylene)tetrahydro-1H-pyrrolizin-7a(5H)-yl)methoxy)-5-fluoro-2-methyl-2H-pyrazolo[4,3-f]quinazolin-4-yl)-5-ethyl-6-fluoronaphthalen-2-ol] | 14.20 | 8.15 | 8.42 | – |
| C#Cc1c(F)ccc2cc(O)cc(-c3c(F)c4nc(OC[C@]56CC(=C)CN5C[C@@H](F)C6)nc(N5C[C@H]6CC[C@@H](C5)N6)c4c4cn(C)nc34)c12 [Example 100, 4-(9-((1 R,5S)-3,8-diazabicyclo[3.2.1]octan-3-yl)-5-fluoro-7-(((2S,7aR)-2-fluoro-6-methylenetetrahydro-1H-pyrrolizin-7a(5H)-yl)methoxy)-2-methyl-2H-pyrazolo[4,3-n]quinazolin-4-yl)-5-ethynyl-6-fluoronaphthalen-2-ol] | 14.50 | 7.54 | 8.92 | – |
| Cn1cc2c(n1)c(-c1cc(O)cc3ccccc13)cc1nc(OC[C@@]34CCCN3C[C@H](F)C4)nc(N3C[C@H]4CC[C@@H](C3)N4)c12 [Example 68, 4-(9-((1R,5S)-3,8-diazabicyclo[3.2.1]octan-3-yl)-7-(((2R,7aS)-2-fluorotetrahydro-1H-pyrrolizin-7a(5H)-yl)methoxy)-2-methyl-2H-pyrazolo[4,3-f]quinazolin-4-yl)naphthalen-2-ol] | 5.75 | – | 1.90 | 5.04 |
| Cn1cc2c(n1)c(-c1cc(O)cc3ccc(F)c(F)c13)cc1nc(OC[C@@]34CCCN3C[C@H](F)C4)nc(N3C[C@H]4CC[C@@H](C3)N4)c12 [Example 70, 4-(9-((1R,5S)-3,8-diazabicyclo[3.2.1]octan-3-yl)-7-(((2R,7aS)-2-fluorotetrahydro-1H-pyrrolizin-7a(5H)-yl)methoxy)-2-methyl-2H-pyrazolo[4,3-f]quinazolin-4-yl)-5,6-difluoronaphthalen-2-ol] | 6.34 | – | 3.38 | 6.13 |
| C#Cc1c(F)ccc2cc(N)cc(-c3cc4nc(OC[C@@]56CCCN5C[C@H](F)C6)nc(N5C[C@H]6CC[C@@H](C5)N6)c4c4cn(C)nc34)c12 [Example 71, 4-(9-((1R,5S)-3,8-diazabicyclo[3.2.1]octan-3-yl)-7-(((2R,7aS)-2-fluorotetrahydro-1H-pyrrolizin-7a(5H)-yl)methoxy)-2-methyl-2H-pyrazolo[4,3-f]quinazolin-4-yl)-5-ethynyl-6-fluoronaphthalen-2-amine] | 8.14 | – | 4.88 | 6.29 |
